“Also recorded” adds a separate entry of the source.
How the values were obtained:
[1] = prior art teaching; cited from earlier work
healthy dry bean seed = experiment: Germination of healthy dry bean seed; type: in vivo
[2] = tested on: dry bean (Phaseolus vulgaris L) seeds, cultivar 'Othello'; experiment: Germination of diseased dry bean seed under bacterial disease pressure (Experiment 1); type: in vivo
Description: The precipitate is recovered by filtration and the powder is dried.
Seeds were placed on blotters in Petri plates, were soaked in an excess of water for 3 days, then drained on day 4. The 3-day period of excess water created extremely high pressure from pathogenic and saprophytic bacteria. This led to a very high bacterial load on the germinating seeds and high disease pressure due to pathogenic, saprophytic and soft-rot bacteria. This disease pressure was so extreme that the germination rates for experiments 2-5 were essentially zero due to being overwhelmed by the disease pressure.

pulse seeds = details: 0.1% to 1% aqueous coating; pea, chickpea, lentil, soybean
Description: Germination on blotters was scored at 7- and 14-days. Emergence from soil was scored at 21- and 28-days.
To treat seeds, one hundred seeds were placed in a 50-mL Falcon tube and combined with the treatment solution. Seeds were mixed with the treatment for 5-min by gently rolling and inverting the Falcon tube. Coated seeds were placed in an open Petri plate for 30-min to dry. Seeds were sown 10-per pot, set in a greenhouse, and maintained under standard conditions with mercury lamp lighting supplementing daylight from 3:00 pm to 10:00 pm.
Place 100-seeds into a 50-mL Falcon tube and add 1-mL of treatment solution. Gently roll and invert the tube for 5 min to evenly coat each seed without causing damage. Remove seeds from tube by pouring carefully into an empty Petri plate. Leave exposed (lid off) and air dry seeds for 30 min.
(1) Germination: Place 50 seeds from each treatment onto 25 individual moistened blotters in large Petri plates. Incubate at room temperature for 2-weeks with or without light. Score germination at 7- and 14-days. (2) Emergence: Sow 50 seeds from each treatment into five pots (10-seeds per pot and five pots per treatment). Place in a greenhouse at 22° C. with ample air circulation. Use mercury lamps to supplement lighting (on at 3:00 pm-off at 10:00 pm) if necessary. For pre-emergent plants, water pots as needed to keep soil moist but not wet. Water emergent plants daily. […]

Which phytotoxicity [1] does the source give for `O=[N+]([O-])[O-].[Ag+]` [silver nitrate] here?
The phytotoxicity was “phytotoxic”.

What does the source list for oxysilver nitrate [high valency silver]?
Day to 50% germination (healthy dry bean seed; 1%): 5.0 days; Day to 50% germination (healthy dry bean seed; […]): 5.0 days; phytotoxicity / effect on germination of dry bean seeds ([2]; 0.1% to 1% treatments, days needed to reach 25% germination): no negative effects on germination; also recorded: no phytotoxic effect on germinating seeds; increase in germination compared with the negative control (sterile water) ([2]; 1% treatment, by day 10): 34.7%; effect on germination of pulse seeds (pulse seeds): no negative effects on germination of any pulse seed
